From patent US20150268248A1, “CELL SELECTIVE PROTEOME LABELING” (MEMORIAL SLOAN-KETTERING CANCER CENTER, priority 2012, published 2015)
Entries after “also recorded” stand apart in the source; their conditions may differ.

Tests used:
[1] = system: HEK 293T cells; assay: Growth of wild-type cells on L-Lysine precursors (Resazurin/AlamarBlue); assay type: cell-based, human; conditions: wild-type HEK 293T; medium without L-Lysine supplemented with high (mM-range) concentrations of precursor
Procedure: (§1) (a) Cells were seeded in 96 well format using at least 4 replicates per condition and cell proliferation was measured with the Resazurin (AlamarBlue) assay at the time indicated.
(§2) To investigate the candidate precursors and eliminate those that autonomously rescue L-Lysine auxotrophy, growth rates in SILAC media supplemented with L-Lysine, various precursors, or in L-Lysine-free conditions were examined.
(§3) Cell lines were grown in Dulbecco's modified Eagle's medium (DMEM) without L-Lysine and L-Arginine (SILAC-DMEM, Thermo Fisher Scientific) supplemented with 10% dialyzed FBS, antibiotics, and L-glutamine. […] Cell viability was measured using either the metabolic-activity based Resazurin (Sigma) reagent or the impedance-based xCELLigence system (Roche). For Resazurin experiments, 25 μL of the Resazurin reagent was added to each well and cellular growth was estimated after two to three hours of incubation at 37° C. as described by the manufacturer. For xCELLigence experiments, cells were plated in either 16 or 96-well E-plates, allowed to settle for 30 minutes at room temperature, and then placed in the RTCA DP or RTCA MP analyzer where impedance was measured every 15 minutes for 96-120 hours. At least three replicates were performed for each condition.

[2] = system: 3T3 cells; assay: as above; assay type: cell-based, mouse; conditions: wild-type 3T3; medium without L-Lysine supplemented with high (mM-range) concentrations of precursor
Procedure: as §1, §2, §3

[3] = system: DDC-expressing 3T3 cells; assay: Growth rescue on precursors in L-Lysine-free medium (xCELLigence impedance); assay type: cell-based, mouse; conditions: 10 mM DAP or 4 mM D-Lysine, mono-culture
Procedure: (§4) Cell growth, assessed with impedance (a correlate of the number of cells) using the xCELLigence system, was normalized to maximum growth. Error bars represent the standard deviation of three biological replicates.
as §3

[4] = system: lyr-expressing MDA-MB-231 cells; assay: as above; assay type: cell-based, human; conditions: 4 mM D-Lysine or 10 mM DAP, mono-culture
Procedure: as §4, §3

[5] = system: HEK293T cells expressing a truncated Lysine racemase (lyr); assay: Growth on D-lysine of cells expressing truncated lyr (xCELLigence impedance); assay type: cell-based, human; conditions: mono- and co-culture in vitro
Procedure: as §4
(§5) Cell lines were grown in Dulbecco's modified Eagle's medium (DMEM) without L-Lysine and L-Arginine (SILAC-DMEM, Thermo Fisher Scientific) supplemented with 10% dialyzed FBS, antibiotics, and L-glutamine. For mono-culture growth assays, 1 mM L-Arginine was added to the media and cells were seeded in 200 μL in 96-well plates with 4000 or 5000 cells per well in different concentrations of L-Lysine, meso-2,6-diaminopimelate (DAP, Sigma, 33240), D-Lysine HCL (Sigma, L5876), N-α-Cbz-L-Lysine (Z-Lysine, BaChem, C-2200), or N2-acetyl-L-Lysine (N2A, Sigma, A2010). Cell viability was measured using either the metabolic-activity based Resazurin (Sigma) reagent or the impedance-based xCELLigence system (Roche). For Resazurin experiments, 25 μL of the Resazurin reagent was added to each well and cellular growth was estimated after two to three hours of incubation at 37° C. as described by the manufacturer. For xCELLigence experiments, cells were plated in either 16 or 96-well E-plates, allowed to settle for 30 minutes at room temperature, and then placed in the RTCA DP or RTCA MP analyzer where impedance was measured every 15 minutes for 96-120 hours. […]

[6] = system: MDA-MB-231 cells expressing truncated Lysine racemase (lyr); assay: Growth on D-lysine of cells expressing truncated lyr; assay type: cell-based, human; conditions: mono- and co-culture in vitro
Procedure: Cell lines were grown in Dulbecco's modified Eagle's medium (DMEM) without L-Lysine and L-Arginine (SILAC-DMEM, Thermo Fisher Scientific) supplemented with 10% dialyzed FBS, antibiotics, and L-glutamine. For mono-culture growth assays, 1 mM L-Arginine was added to the media and cells were seeded in 200 μL in 96-well plates with 4000 or 5000 cells per well in different concentrations of L-Lysine, meso-2,6-diaminopimelate (DAP, Sigma, 33240), D-Lysine HCL (Sigma, L5876), N-α-Cbz-L-Lysine (Z-Lysine, BaChem, C-2200), or N2-acetyl-L-Lysine (N2A, Sigma, A2010). Cell viability was measured using either the metabolic-activity based Resazurin (Sigma) reagent or the impedance-based xCELLigence system (Roche). For Resazurin experiments, 25 μL of the Resazurin reagent was added to each well and cellular growth was estimated after two to three hours of incubation at 37° C. as described by the manufacturer. For xCELLigence experiments, cells were plated in either 16 or 96-well E-plates, allowed to settle for 30 minutes at room temperature, and then placed in the RTCA DP or RTCA MP analyzer where impedance was measured every 15 minutes for 96-120 hours. At least three replicates were performed for each condition.

[7] = system: B16 cells expressing truncated Lysine racemase (lyr); assay: as above; assay type: cell-based, mouse; conditions: mono- and co-culture in vitro
Procedure: CTAP can be quickly adaptable across many cell types without phenotypic or molecular disturbance. Cell lines that are suitable for use in practicing the method of the invention include, but are not limited to mouse fibroblast 3T3 cells, mouse melanoma, B16 cells, human embryonic kidney (HEK) cells, human mammary adenocarcinoma cells, […], etc.
as §5, with “For Resazurin experiments, 25 μL of the Resazurin reagent was added to each well and cellular growth was estimated after two to three hours of incubation at 37° C. as described by the manufacturer.” left out

[8] = system: DDC-expressing HEK293T cells; assay: Growth rescue on precursors in L-Lysine-free medium (xCELLigence impedance); assay type: cell-based, human; conditions: 10 mM DAP, mono-culture
Procedure: FIG. 9 are graphs showing that HEK293T cells expressing the L-Lysine biosynthesis enzyme diaminopimelate decarboxylase (DDC) specifically grow on meso-2,6-diaminopimelate (DAP). HEK293T cells stably transfected with DDC (left panel) or empty control vector (right panel) were cultured in 0.798 mM L-Lysine, 10 mM DAP, or neither (blank). Cell growth was estimated by the impedance-based xCelligence assay and data was normalized to the maximum value for each cell-type. Note that only HEK293T cells that express DDC grow on DAP. Error bars represent the standard deviation of three biological replicates.
The time to reach normal growth rates varied between cell-types from immediate to a short passaging/selection period.
as §3, with “For Resazurin experiments, 25 μL of the Resazurin reagent was added to each well and cellular growth was estimated after two to three hours of incubation at 37° C. as described by the manufacturer.” left out, “At least three replicates were performed for each condition.” left out

[9] = system: CBZcleaver-expressing 3T3 cells; assay: Growth on Z-Lysine (xCELLigence impedance); assay type: cell-based, mouse; conditions: 2.5 mM Z-Lysine, L-Lysine-free
Procedure: FIG. 10 are graphs showing that 3T3 cells expressing the CBZcleaver enzyme grow on Z-Lysine and partially incorporate L-Lysine produced from Z-Lysine (CBZ-Lysine). (a) 3T3 cells stably trasfected with CBZcleaver (left panel) or empty control vector (right panel) were cultured in 0.798 mM L-Lysine, 2.5 mM Z-Lysine, or without either (blank). Cell growth was estimated by the impedance-based xCELLigence assay and data was normalized to maximum values for each cell-type. Error bars represent the standard deviation of three biological replicates. […] The labeling status was assessed by quantitative LC-MS/MS at the beginning of the experiment where the cells were labeled with medium L-Lysine (left, K4) and after 10 days in L-Lysine-free media with heavy labeled Z-Lysine (right, Z8). […]
as §3, with “For Resazurin experiments, 25 μL of the Resazurin reagent was added to each well and cellular growth was estimated after two to three hours of incubation at 37° C. as described by the manufacturer.” left out, “At least three replicates were performed for each condition.” left out

Row | Compound | growth response [1] | growth response [2] | growth rate relative to media containing L-Lysine [3] | growth rate relative to media containing L-Lysine [4] | growth on D-lysine relative to growth on L-lysine [5] | growth on D-lysine relative to growth on L-lysine [6] | growth on D-lysine relative to growth on L-lysine [7] | growth rate relative to media containing L-Lysine [8] | growth on Z-Lysine [9]
1 | NCCCC[C@@H](N)C(=O)O [D-Lysine] | no or limited growth response | no or limited growth response | no growth | comparable | comparable | comparable | comparable |  | 
2 | N[C@H](CCC[C@H](N)C(=O)O)C(=O)O [DAP, meso-2,6-diaminopimelate] | no or limited growth response | no or limited growth response | comparable | no growth |  |  |  | comparable | 
3 | CC(=O)N[C@@H](CCCCN)C(=O)O [N2A, N2-acetyl-L-Lysine] | substantial growth response | substantial growth response |  |  |  |  |  |  | 
4 | NCCCC[C@H](NC(=O)OCc1ccccc1)C(=O)O [Z-Lysine, N-α-Cbz-L-Lysine] | no or limited growth response | no or limited growth response |  |  |  |  |  |  | incomplete; also recorded: specific growth rescue
